Counter-ions that a name gives are not always drawn. Like-named read-outs stand apart in the source and are kept apart here.
Tests used:
Diplococcus pneumoniae = assay: MIC vs. aerobic bacteria, microplate broth-dilution (BHI); assay type: cell-based; conditions: Streptococcus pneumoniae, read-out: Minimal Inhibitory Concentration (MIC)
Protocol: (§1) The Minimal Inhibitory Concentration (MIC's) of both compounds Vs. aerobic bacteria is determined using a standard microplate broth-dilution method. Brain Heart Infusion (BHI-Difco) broth medium is used, and the plates are incubated at 37° C. for 20 hrs.

Escherichia coli = assay: as above; assay type: cell-based; conditions: UC45, UC 45, read-out: Minimal Inhibitory Concentration (MIC)
Protocol: as §1

Klebsiella pneumoniae = assay: as above; assay type: cell-based; conditions: Klebsiella pneumoniae, UC58, UC 58; read-out: Minimal Inhibitory Concentration (MIC)
Protocol: as §1

Proteus vulgaris = assay: as above; assay type: cell-based; conditions: Proteus vulgaris, UC93, UC 93; read-out: Minimal Inhibitory Concentration (MIC)
Protocol: as §1

Pseudomonas aeruginosa = assay: as above; assay type: cell-based; conditions: UC95, UC 95, read-out: Minimal Inhibitory Concentration (MIC)
Protocol: as §1

[1] = test system: Salmonella schottmuelleri; assay: as above; assay type: cell-based; conditions: Salmonella, UC126; UC 126; read-out: Minimal Inhibitory Concentration (MIC)
Protocol: as §1

[2] = test system: Staphylococcus epidermidis; assay: as above; assay type: cell-based
Protocol: as §1

Streptococcus faecalis = assay: as above; assay type: cell-based; conditions: Enterococcus faecalis, UC694, UC 694; read-out: Minimal Inhibitory Concentration (MIC)
Protocol: as §1

Streptococcus pyogenes = assay: as above; assay type: cell-based; conditions: UC152, UC 152, read-out: Minimal Inhibitory Concentration (MIC)
Protocol: as §1

Streptococcus viridans = assay: as above; assay type: cell-based
Protocol: as §1

Clostridium novyi B = assay: MIC vs. anaerobic bacteria, agar dilution; assay type: cell-based; conditions: UC6329, UC 6329, read-out: Minimal Inhibitory Concentration (MIC)
Protocol: (§2) The procedure for the above test is as follows: Serial two-fold dilutions of drug are prepared in 1.0 ml volumes of Schaedler Broth, and 9.0 ml of molten (47° C.) Wilkens-Chalgren Agar Medium, infra, is added to the antibiotic-supplemented broth. After mixing with the antibiotic, the agar is poured into 100 mm×20 mm petri dishes. The dishes are allowed to stand on the bench overnight prior to inoculation.
(§3) Cultures are streaked on Wilkens-Chalgren Agar, and grown for 48 hours at 37° C. in a BBL Anaerobe Jar. Growth from the plate is harvested, and a cell suspension is made in Schaedler broth to equal the turbidity of a 0.5 McFarland Standard (10^8 cells/ml). The suspension is pipetted into the wells of a Steers replicator, and approx. 1-2 μl is delivered to the surface of the agar plates. After allowing a few minutes for the inoculum to dry, the plates are placed in a BBL Anaerobe Jar (atomsphere of 85% N, 10% H, 5% CO2) and incubated at 37° C. for 72 hours.
(§4) The Minimal Inhibitory Concentration (MIC) is read as the least amount of drug that inhibits growth. A very faint film of growth, or <3 is colonies is considered negative.

Clostridium sordellii = assay: MIC vs. anaerobic bacteria, agar dilution; assay type: cell-based; conditions: Paraclostridium sordellii, UC6505, UC 6505, read-out: Minimal Inhibitory Concentration (MIC)
Protocol: as §2, §3, §4

Clostridium tentani = assay: MIC vs. anaerobic bacteria, agar dilution; assay type: cell-based; conditions: UC6521, UC 6521, read-out: Minimal Inhibitory Concentration (MIC)
Protocol: as §2, §3, §4

Clostridium tertium = assay: MIC vs. anaerobic bacteria, agar dilution; assay type: cell-based; conditions: UC6508, UC 6508, read-out: Minimal Inhibitory Concentration (MIC)
Clostridium cadaveris = assay: MIC vs. anaerobic bacteria, agar dilution; assay type: cell-based; conditions: UC6510, UC 6510, read-out: Minimal Inhibitory Concentration (MIC)
Clostridium bifermentans = assay: MIC vs. anaerobic bacteria, agar dilution; assay type: cell-based; conditions: Paraclostridium bifermentans, UC6507, UC 6507, read-out: Minimal Inhibitory Concentration (MIC)
Clostridium difficile = assay: MIC vs. anaerobic bacteria, agar dilution; assay type: cell-based; conditions: Clostridioides difficile
Propionibacterium acnes = assay: MIC vs. anaerobic bacteria, agar dilution; assay type: cell-based; conditions: Cutibacterium acnes
Eubacterium lentum = assay: MIC vs. anaerobic bacteria, agar dilution; assay type: cell-based; conditions: Eggerthella lenta, UC6522, UC 6522, read-out: Minimal Inhibitory Concentration (MIC)
Actinomyces naeslundii = assay: MIC vs. anaerobic bacteria, agar dilution; assay type: cell-based; conditions: UC5920, read-out: Minimal Inhibitory Concentration (MIC)
Fusobacterium nucleatum = assay: MIC vs. anaerobic bacteria, agar dilution; assay type: cell-based
Fusobacterium varium = assay: MIC vs. anaerobic bacteria, agar dilution; assay type: cell-based; conditions: UC6052, UC 6052, read-out: Minimal Inhibitory Concentration (MIC)
D. pneumoniae III = assay: Mouse Protection Test; assay type: in vivo; conditions: strain MPI III, two experiments listed; for ED50: Streptococcus pneumoniae, 168 h, read-out: Median Protective Dose (CD50); for Median Protective Dose (CD50): 10080 min, listed as U-57930E . Hcl
Description: Immediately before use, the suspensions were thawed quickly and properly diluted. Infection was via the intrapertioneal route.
Treatment of the infected groups was begun immediately and continued once per day for 4 days (first 24 hr period=1). Groups of untreated mice served as virulence controls for the culture.
Seven days after the treatment regimen was begun the surviving animals were sacrificed and the median protective dose of the antibiotic calculated on the basis of mortality rates in the treatment groups. The median protective dose and its 95% confidence interval were calculated according to the method of Spearmen & Karber as programmed on a 360 digital computer.
U-60,970E was also tested in vivo in standard laboratory mice which were experimentally infected with bacteria. The test was conducted in comparison with U-57,930E.

CC[C@@H]1CCN[C@H](C(=O)N[C@@H]([C@H]2O[C@H](SC)[C@H](O)[C@@H](O)[C@H]2O)[C@H](C)Cl)C1 [U-57,930E, 4-Cis-ethyl-1-pipecolic acid amide of 7-Cl-MTL.HCl]
MIC (Diplococcus pneumoniae; UC41, Diplococcus pneumoniae I, UC 41): ≤ 0.012 µg/mL | MIC (Diplococcus pneumoniae; UC3213, Diplococcus pneumoniae II, UC 3213): ≤ 0.012 µg/mL | MIC (Escherichia coli): > 50 µg/mL | MIC (Klebsiella pneumoniae): > 50 µg/mL | MIC (Proteus vulgaris): > 50 µg/mL | MIC (Pseudomonas aeruginosa): > 50 µg/mL | MIC [1]: > 50 µg/mL | MIC ([2]; UC719, UC 719, read-out: Minimal Inhibitory Concentration (MIC)): 0.2 µg/mL | MIC ([2]; UC3389, UC 3389, read-out: Minimal Inhibitory Concentration (MIC)): 0.2 µg/mL | MIC (Streptococcus faecalis): 6.25 µg/mL | MIC (Streptococcus pyogenes): ≤ 0.012 µg/mL | MIC (Streptococcus viridans; UC153, UC 153, read-out: Minimal Inhibitory Concentration (MIC)): 0.05 µg/mL | MIC (Streptococcus viridans; UC871, UC 871, read-out: Minimal Inhibitory Concentration (MIC)): ≤ 0.012 µg/mL | MIC (Clostridium novyi B): 0.12 µg/mL | MIC (Clostridium sordellii): 0.5 µg/mL | MIC (Clostridium tentani): ≤ 0.03 µg/mL | MIC (Clostridium tertium): 7.8 µg/mL | MIC (Clostridium cadaveris): 0.06 µg/mL | MIC (Clostridium bifermentans): 0.06 µg/mL | MIC (Clostridium difficile; UC6834, UC 6834, read-out: Minimal Inhibitory Concentration (MIC)): 3.9 µg/mL | MIC (Clostridium difficile; UC6857, UC 6857, read-out: Minimal Inhibitory Concentration (MIC)): 125 µg/mL | MIC (Clostridium difficile; UC6858, UC 6858, read-out: Minimal Inhibitory Concentration (MIC)): 3.9 µg/mL | MIC (Clostridium difficile; UC6860, UC 6860, read-out: Minimal Inhibitory Concentration (MIC)): 500 µg/mL | MIC (Clostridium difficile; UC6861, UC 6861, read-out: Minimal Inhibitory Concentration (MIC)): 2 µg/mL | MIC (Propionibacterium acnes; UC6564, UC 6564, read-out: Minimal Inhibitory Concentration (MIC)): 0.12 µg/mL | MIC (Propionibacterium acnes; UC6575, UC 6575, read-out: Minimal Inhibitory Concentration (MIC)): 0.06 µg/mL | MIC (Eubacterium lentum): 1 µg/mL | MIC (Actinomyces naeslundii): 0.25 µg/mL | MIC (Fusobacterium nucleatum; UC6324, UC 6324, read-out: Minimal Inhibitory Concentration (MIC)): 0.06 µg/mL | MIC (Fusobacterium nucleatum; UC6516, UC 6516, read-out: Minimal Inhibitory Concentration (MIC)): 0.12 µg/mL | MIC (Fusobacterium varium): 3.9 µg/mL | ED50 (D. pneumoniae III; po, oral): 14.4 mg/kg | ED50 (D. pneumoniae III; sc, subcutaneous): 2.68 mg/kg | Median Protective Dose (CD50) (D. pneumoniae III; oral): 16.49 (10.51-25.88) mg/kg | Median Protective Dose (CD50) (D. pneumoniae III; subcutaneous): 2.5 (1.69-3.69) mg/kg

Source: patent US4310660A, “Lincomycin compounds” (The Upjohn Company, priority 1980, dated 1982)
